In patent US4939133A, “N-substituted-2-hydroxy-α-oxo-benzeneacetamides and pharmaceutical compositions having activity as modulators of the arachidonic acid cascade” (Warner-Lambert Company, priority 1985, dated 1990):
Several values for one entry are separate records, joined by “and”; a condition that tells them apart may be missing. Equal entries are not always repeated. Where two headings read alike, the source gives them in different places.

Key:
[1] = tested on: Human Leukocyte Lipoxygenase; test: Human Leukocyte Lipoxygenase Assay (LDA-H / LDAH); type: biochemical; settings: for IC50: 50% reduction of reaction rate vs control, E -number means X 10^-no.
Protocol: Human Leukocyte Lipoxygenase Assay (LDA-H)
Whole blood is collected from normal volunteers and spun in a refrigerated centrifuge for four minutes at 1°-6° C. at 3800 g. The buffy coat is manually separated and washed twice with chilled 0.83% NH4 Cl and centrifuged at 1000 RPM for ten minutes at 4° C. The white cell is suspended in culture media-EMEM supplemented with 6% Agamma human serum, tricine buffer, and neomycin and recentrifuged at 1000 g to yield a pellet containing the leukocytes used for the preparation of the acetone pentane powder.
The acetone-pentane powder is prepared utilizing a modification of the procedure reported for human platelet lipoxygenase. See Siegel, et al, Arachidonate Metabolism via Lipoxygenase and 12-L-hydroperoxy-5-Eicostetraenoic acid Peroxidase Sensitive to Antiinflammatory Drugs, Proc. Natl. Acad. Sci., USA 77:308, 1980 and D. P. Wallach and V. R. Brown, a novel Preparation of Human Platlet Lipoxygenase, Biochem. Biophys. Acta. 663:361, 1981. Buffy coat prepared above is resuspended in 5-7 volumes of cold 0.1M Tris buffer, pH 7.4 containing 0.154M NaCl. The suspension is centrifuged at 13,300 g for ten minutes at 4° C. The resultant pellet was retained, resuspended in five volumes of cold acetone, recentrifuged at 13,300 g and resuspended in five volumes of cold pentane. The pentane suspension is centrifuged for ten minutes at 13,300 g to give a pellet which is dried in the cold under vacuum with periodic pulverization. The dry powder is stable for several weeks when stored at -88° C.
Enzyme stock solution is prepared in the following manner. About 15 mg of the acetone-pentane powder sis suspended in 4 ml of cold tris buffer (0.1M, pH 7.4), allowed to stand for five minutes, and homogenized thorougly. The homogenate is sonicated three times for 15 seconds each time, diluted to 7 ml with cold tris buffer (0.1M, pH 7.4), and centrifuged at 4° C. for 60 minutes at 13,300 g. The supernatent is retained and diluted to a total of 10 ml with cold tris buffer (0.1M, pH 7.4) to give the stck enzyme solution. Additional dilutions of 2-50 fold are done as necessary to locate optimal enzyme reaction rate in the assay described below.
Substrate solution is prepared at 100 μM or 1.0 μM concentrations of arachidonic acid or linoleic acid in 0.1M tris buffer, pH 9.0 containing 20% ethanol.
The enzyme reaction is followed spectrophotometrically by the appearance of a conjugated diene product at 234 nm. The reaction is monitored at 24° C. using a Gilford Model 2600 spectrophotometer. […] The effects of inhibitors on the reaction are compared with control reactions run under indentical conditions. Routinely, each compounds of the present invention is incubated with the enzyme for five minutes prior to addition of substrate to initiate the reaction. Inhibition expressed as IC50 as molar concentration of the compound required to reduce reaction rate to 50% control.

[2] = target: T1, human leukocyte 5-lipoxygenase (Homo sapiens, UniProt P09917); test: 5-Lipoxygenase inhibition in human leukocytes, 5-HETE formation (5LOA1, 5LOA in Table 6); type: cell-based; settings: 50% inhibition of 5-HETE formation, E -number means X 10^-no.
T1 construct: endogenous in cells; host or cells: leukocytes from fresh blood of normal adult men
T1 sequence (P09917 1-674): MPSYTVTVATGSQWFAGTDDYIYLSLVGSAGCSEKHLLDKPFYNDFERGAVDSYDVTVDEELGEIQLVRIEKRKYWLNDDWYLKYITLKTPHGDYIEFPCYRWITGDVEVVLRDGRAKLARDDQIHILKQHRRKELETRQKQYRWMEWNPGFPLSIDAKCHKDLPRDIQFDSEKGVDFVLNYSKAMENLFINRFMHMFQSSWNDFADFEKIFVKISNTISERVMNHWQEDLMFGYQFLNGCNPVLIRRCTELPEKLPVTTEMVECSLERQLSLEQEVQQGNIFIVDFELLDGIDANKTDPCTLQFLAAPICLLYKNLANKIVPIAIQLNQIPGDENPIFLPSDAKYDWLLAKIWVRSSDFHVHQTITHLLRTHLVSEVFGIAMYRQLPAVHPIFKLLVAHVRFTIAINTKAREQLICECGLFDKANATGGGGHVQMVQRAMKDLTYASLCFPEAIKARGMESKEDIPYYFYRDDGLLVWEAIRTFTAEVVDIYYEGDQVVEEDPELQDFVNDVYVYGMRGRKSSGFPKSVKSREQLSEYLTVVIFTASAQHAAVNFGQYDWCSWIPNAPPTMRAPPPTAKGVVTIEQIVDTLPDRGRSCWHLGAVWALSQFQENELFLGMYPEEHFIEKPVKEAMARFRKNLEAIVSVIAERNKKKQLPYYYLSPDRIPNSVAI
Excerpt: To Evaluate the Effect of Each Compounds as a 5-Lipoxygenase Inhibitor in Comparison to Standard Reference Agents in Human Leukocytes (5LOAl)
The purpose of this assay is to evaluate the activity of each compound as an inhibitor of human leukocyte 5-lipoxygenase.
Arachidonic acid and calcium ionophore A23187 are obtained from Sigma (St. Louis, MO). Silica gel plates, GF are obtained from Analtech (Newark, DE). Arachidonic acid, (1-^14 C) and 5-HETE (^3 H), 5-(S)-hydroxy-6-trans, 8,11,14-cis eicosatetraenoic acid, are obtained from New England Nuclear (Boston, MA). Six percent Dextran-70 in 0.9% NaCl is obtained from Cuffer Labs (Berkeley, CA).
Preparation of Leukocytes
Fresh blood from normal adult men who had not received any drugs for at least the previous five days is obtained by the Community Research Clinic (WL/PD) using venipuncture and collected into heparinized vacuotainer tubes. To every 100 ml of pooled blood is added 25 ml of dextran solution (6% dextran -70 in 0.9% sodium chloride containing 3% dextrose) and this is mixed gently in a plastic cylinder. The mixture is left to stand at room temperature for at least 90 minutes. The upper layer which is rich in leukocytes and platelets is then carefully decanted into 50 ml plastic tubes and centrifuged at about 100×g for eight minutes in and IEC centrifuge and rotor number 269 (about 600 rpm). The supernatant fluid is discarded and the pellet is resuspended in 10 ml of 0.87% ammonium chloride for exactly two minutes. This procedure is to lyse completely contaminating red blood cells. Leukocytes are then separated by centrifugation for ten minutes. The pellet is washed three times by suspension in 20 ml PBS (sodium chloride, 7.1 g; Na2 HPO4, 1.15 g; KH2 PO4,0.2 g, and KCl, 0.2 g/L) and centrifuged as before. The final pellet is suspended in PBS containing 0.87 mM CaCl2. Viability of the cells is then checked using trypan blue exclusion method and is found to be over 90%.
5-Lipoxygenase Enzyme Assay
Leukocyte cells in suspension (0.98 ml) are incubated with or without test compounds for five minutes at 37° C. in a shaking water bath. At this time a […] mixture is perpared per 1 ml of cell suspension: 100 mM arachidonic acid, 1 μl, 0.05 μCi ^14 C-arachidonic acid in 5 μl; 1 mM calcium ionophore A23187, 10 μl (1). This mixture is added and the incubation continued for five minutes. The reaction is stopped by adding four volumes of absolute ethanol and the mixture is kept in ice for 30 minutes. The floculated precipitate is separated by centrifugation at about 37,000×g for 20 minutes (Beckman Instruments rotor number 40). The alcohol extract is taken to dryness under a stream of nitrogen and the residue is dissolved in 100-200 μl absolute ethanol. At the time any turbidity is removed by centrifugation. An aliquot (25-50 μl) is applied onto 20×20 cm silica gel TLC plate and developed using the following solvent system: diethyl ether, petroleum ether (2040°C.),acetic acid (50:50: 1 v/v). Zones of 1 cm apart are scraped from the TLC plate and transferred to mini-vials. Methanol (0.5 ml) is added to dissolve the radioactivity adsorbed to the silica gel and scintillation fluid (H. P., Beckman), 5 ml is then added and vials are counted in a liquid scintillation counter. A sample of ^3 H-5-HETE is applied and used for the identification of the formed 5-HETE. Total radioactivity in the test as well as the control samples are normalized and the amount of 5-HETE present is calculated accordingly.
IC50 values are defined as the concentrations of test agents which caused a 50% inhibition of the formation of 5-HETE as compared to control and are determined by inspection of the concentration-response curves.

| Structure (SMILES) | IC50 ([2]; read-out: IC50 (5LOA)) | % Inhibition (LDAH) ([1]; 2.50 E -5 M) [%] | IC50 [1] [µM] | further results |
| --- | --- | --- | --- | --- |
| CCCCCCCCCCc1ccc(NC(=O)c2c(O)cccc2O)cc1 [Example 25] | – | – | – | % Inhibition (LDAH) ([1]; 8.00 E -5 M): 0.0% |
| COc1ccc(CCc2ccc(NC(=O)c3ccccc3O)cc2)cc1OC [Example 48, N-[4-[2-(3,4-dimethoxyphenyl)ethyl]phenyl]-2-hydroxybenzamide] | 4.2 µM and 3.5 µM | 0.0 | – | – |
| COc1ccc(CCc2ccc(N(C)C(=O)C(=O)c3ccccc3O)cc2)cc1OC [Example 51, N-Methyl-N-[4-(2-(3,4-dimethoxyphenyl)ethyl)phenyl]-2-hydroxy-α-oxo-benzeneacetamide] | 11.1 µM | – | – | – |
| COc1ccc(C(=O)Nc2ccc(CCc3ccc(O)c(O)c3)cc2)c(O)c1 [Example 8, N-[4-[2-(3,4-Dihydroxyphenyl)ethyl]phenyl]-2-hydroxy-4-methoxybenzamide] | 7.1 µM | – | – | – |
| COc1cc(CCc2ccc(NC(=O)c3ccc(C)cc3O)cc2)ccc1O [Example 26] | – | – | 24 | – |
| CCCCCCCCCCc1ccc(NC(=O)c2cc([N+](=O)[O-])ccc2O)cc1 [Example 21, N-(4-n-decylphenyl)-2-hydroxy-5-nitro-benzamide] | – | – | – | IC50 ([2]; IC50 (5LOA)): 20.8 µM |
| O=C(Nc1ccc(CCc2ccc(Cl)c(Cl)c2)cc1)c1ccc(Cl)cc1O [Example 36] | – | 0.0 | – | – |
| COc1ccc(CCc2ccc(NC(=O)c3cc4ccccc4cc3O)cc2)cc1OC [Example 38] | – | 0.0 | – | – |
| CCCCCCCCCCc1ccc(NC(=O)c2cc(Br)ccc2O)cc1 [Example 12] | – | 0.0 | – | – |
| CC(C)(C)c1cccc(C(=O)C(=O)Nc2ccc(CCc3ccc(O)c(O)c3)cc2)c1O [Example 55, N-[4-[2-(3,4-dihydroxyphenyl)ethyl]phenyl]-3-(1,1-dimethylethyl)-2-hydroxy-α-oxobenzenacetamide] | 7.1 µM and 8.17 µM | – | 3.9 | – |
| O=C(Nc1ccc(CCc2ccc(O)c(O)c2)cc1)c1ccccc1O [Example 47, Benzamide, N-[4-[2-(3,4-dihydroxyphenyl)ethyl]phenyl]-2-hydroxy] | – | 0.0 | – | – |
| CCCCCCCCCCc1ccc(NC(=O)c2cccc(C)c2O)cc1 [Example 22] | – | – | 0.68 | – |
| Cc1ccc(C(=O)N(C)c2ccc(CCc3ccc(O)c(O)c3)cc2)c(O)c1 [Example 43] | 5.3 µM | – | – | – |
| COc1ccc(CCc2ccc(NC(=O)c3cccc(Cl)c3O)cc2)cc1OC [Example 23] | – | – | 4.1 | – |
| COc1ccc(CCc2ccc(NC(=O)C(=O)c3ccccc3O)cc2)cc1OC [Example 52, N-[4-(2-(3,4-dimethoxyphenyl)ethyl)phenyl]-2-hydroxy-α-oxo-Benzeneacetamide] | 5 µM | – | 0.184 | – |
| COc1ccc(CCc2ccc(NC(=O)C(=O)c3cccc(Cl)c3O)cc2)cc1OC [Example 60, 3-chloro-N-[4-[2-(3,4-dimethoxyphenyl)ethy]-phenyl]-2-hydroxy-α-oxo-benzenacetamide] | – | – | 120 | – |
| CCCCCCCCCCc1ccc(NC(=O)c2cc3ccccc3cc2O)cc1 [Example 49, 2-Naphthalenecarboxamide, N-(4-decylphenyl)-3-hydroxy] | – | 0.0 | – | – |
| CCCCCCCCCCc1ccc(NC(=O)c2ccccc2O)cc1 [Example 13] | – | 0.0 | – | – |
| O=C(Nc1ccc(CCc2ccc(Cl)c(Cl)c2)cc1)c1cccc(Cl)c1O [Example 34] | 39.2 µM | – | – | – |
| O=C(Nc1ccc(CCc2ccc(O)c(O)c2)cc1)C(=O)c1ccccc1O [Example 53, N-[4-[2-(3,4-dihydroxyphenyl)ethyl]-phenyl]-2-hydroxy-α-oxo-benzeneacetamide] | 3.38 µM | – | 17 | – |
| COc1ccc(CCc2ccc(NC(=O)C(=O)c3cccc(C(C)(C)C)c3O)cc2)cc1OC [Example 54, N-[4-[2-(3,4-dimethoxyphenyl)ethyl]phenyl]-3-(1,1-dimethylethyl)-2-hydroxy-α-oxo-benzeneacetamide] | – | – | 0.28 | – |
| CCCCCCCCCCc1ccc(NC(=O)c2ccc(Cl)cc2O)cc1 [Example 7] | – | – | 2.8 | – |
